Results on 19 compounds are retold here after patent US7279494B2, “Antimicrobial [3.1.0] bicyclohexylphenyl-oxazolidinone derivatives and analogues” (Pfizer Inc., priority 2003, dated 2007).

Holding throughout (type): cell-based
The subject of one assay is S. aureus UC9213. In words: MIC by standard agar dilution, S. aureus UC9213. The note with it: incubated overnight at 35° C.; for MIC: Staphylococcus aureus, UC9213, Mueller Hinton agar. The source says: (§1) The in vitro activity of compounds of the subject invention may be assessed by standard testing procedures such as the determination of minimum inhibitory concentration (MIC) by agar dilution as described in “Approved Standard. Methods for Dilution Antimicrobial Susceptibility Tests for Bacteria that Grow Aerobically,” 3rd ed., published 1993 by the National Committee for Clinical Laboratory standards, Villanova, Pa., USA.
(§2) The in vitro MICs of test compounds may be determined by a standard agar dilution method. A stock drug solution of each analog is prepared in a preferred solvent, usually DMSO:H2O (1:3). Serial 2-fold dilutions of each sample are made using 1.0 mL aliquots of sterile distilled water. To each 1.0 mL aliquot of drug is added 9 mL of molten Mueller Hinton agar medium. The drug-supplemented agar is mixed, poured into 15×100 mm petri dishes, and allowed to solidify and dry prior to inoculation.
(§3) Vials of each of the test organisms are maintained frozen in the vapor phase of a liquid nitrogen freezer. Test cultures are grown overnight at 35° C. on the medium appropriate for the organism. Colonies are harvested with a sterile swab, and cell suspensions are prepared in Trypticase Soy broth (TSB) to equal the turbidity of a 0.5 McFarland standard. A 1:20 dilution of each suspension is made in TSB. The plates containing the drug supplemented agar are inoculated with a 0.001 mL drop of the cell suspension using a Steers replicator, yielding approximately 10^4 to 10^5 cells per spot. The plates are incubated overnight at 35° C.
(§4) Following incubation the Minimum Inhibitory Concentration (MIC μg/mL), the lowest concentration of drug that inhibits visible growth of the organism, is read and recorded.
For orientation: Agar dilution tests growth on a series of plates holding different concentrations.

Another assay has as its system S. pneumoniae UC9912. Briefly: MIC by standard agar dilution, S. pneumoniae UC9912. The following applies: incubated overnight at 35° C.; for MIC: Streptococcus pneumoniae, UC9912, Mueller Hinton agar.
Description: as §1, §2, §3, §4

A further assay deals with H. influenzae 30063. In words: MIC by standard agar dilution, H. influenzae 30063. The note with it: Haemophilus influenzae, 30063, agar dilution, Mueller Hinton agar, incubated overnight at 35° C.; read-out: H. influenzae 30063 MIC.
Description: as §1, §2, §3, §4

Values after ≈ are worked out from the molar mass of the structure shown.

In the case of `CC(=O)NC[C@H]1CN(c2ccc([C@H]3[C@@H]4CN(CCC#N)C[C@@H]43)c(F)c2)C(=O)O1` [Example 48, N-[((5S)-3-{3-fluoro-4-[exo-(1R,5S)-3-(2-cyanoethyl)-3-azabicyclo[3.1.0]hex-6-yl]phenyl}-2-oxo-1,3-oxazolidin-5-yl)methyl]acetamide], the MIC was 4 µg/mL (≈ 10.4 µM) against S. aureus UC9213, 1 µg/mL (≈ 2.59 µM) in the assay on S. pneumoniae UC9912 and 16 µg/mL (≈ 41.4 µM) in the assay with H. influenzae 30063.
As for `O=C(NC[C@H]1CN(c2ccc([C@H]3[C@@H]4CS(=O)(=O)C[C@@H]43)c(F)c2)C(=O)O1)C1CCC1` [Example 57, N-[((5S)-3-{3-fluoro-4-[exo-(1R,5S)-3,3-dioxido-3-thiabicyclo[3.1.0]hex-6-yl]phenyl}-2-oxo-1,3-oxazolidin-5-yl)methyl]cyclobutanecarboxamide], the MIC against S. aureus UC9213 was 8 µg/mL (≈ 18.9 µM); in the assay on S. pneumoniae UC9912, 2 µg/mL (≈ 4.73 µM); in the assay on H. influenzae 30063 it was 32 µg/mL (≈ 75.7 µM).
Regarding `CC(F)(F)C(=O)NC[C@H]1CN(c2cc(F)c([C@H]3[C@@H]4CS(=O)(=O)C[C@@H]43)c(F)c2)C(=O)O1` [Example 60, 2,2-difluoro-N-[((5S)-3-{3,5-difluoro-4-[exo-(1R,5S)-3,3-dioxido-3-thiabicyclo[3.1.0]hex-6-yl]phenyl}-2-oxo-1,3-oxazolidin-5-yl)methyl]propanamide], the MIC against S. aureus UC9213 worked out at 8 µg/mL (≈ 17.8 µM); with S. pneumoniae UC9912, 2 µg/mL (≈ 4.44 µM); in the assay on H. influenzae 30063 it was 16 µg/mL (≈ 35.5 µM).
Take `CC(=O)NC[C@H]1CN(c2ccc([C@H]3[C@@H]4CN(C(=O)c5ccno5)C[C@@H]43)c(F)c2)C(=O)O1` [Example 37, N-[((5S)-3-{3-fluoro-4-[exo-(1R,5S)-3-(isoxazole-5-carbonyl)-3-azabicyclo[3.1.0]hex-6-yl]phenyl}-2-oxo-1,3-oxazolidin-5-yl)methyl]acetamide]: the results for the MIC in the assay with S. aureus UC9213, against S. pneumoniae UC9912 and in the assay with H. influenzae 30063 were 1 µg/mL (≈ 2.33 µM), 0.5 µg/mL (≈ 1.17 µM) and 8 µg/mL (≈ 18.7 µM), respectively.
As to `CCC(=O)NC[C@H]1CN(c2cc(F)c([C@H]3[C@@H]4CN(C(=O)CO)C[C@@H]43)c(F)c2)C(=O)O1` [Example 64, N-[((5S)-3-{3,5-difluoro-4-[exo-(1R,5S)-3-glycoloyl-3-azabicyclo[3.1.0]hex-6-yl]phenyl]-2-oxo-1,3-oxazolidin-5-yl)methyl]propanamide], the MIC against S. aureus UC9213 came to 4 µg/mL (≈ 9.45 µM); in the assay with S. pneumoniae UC9912, 2 µg/mL (≈ 4.72 µM); in the assay with H. influenzae 30063, 8 µg/mL (≈ 18.9 µM).
For `O=C(NC[C@H]1CN(c2cc(F)c([C@H]3[C@@H]4CS(=O)(=O)C[C@@H]43)c(F)c2)C(=O)O1)C1CC1` [Example 62], the MIC turned out to be 4 µg/mL (≈ 9.38 µM) in the assay with S. aureus UC9213, 1 µg/mL (≈ 2.34 µM) in the assay on S. pneumoniae UC9912 and 8 µg/mL (≈ 18.8 µM) with H. influenzae 30063.
For `CC(=O)NC[C@H]1CN(c2ccc([C@H]3[C@@H]4CN(/C(N)=N/C#N)C[C@@H]43)c(F)c2)C(=O)O1` [Example 74, exo-(1R,5S)-N′-cyano-6-(4-{(5S)-5-[(acetylamino)methyl]-2-oxo-1,3-oxazolidin-3-yl}-2-fluorophenyl)-3-azabicyclo[3.1.0]hexane-3-carboximidamide], the MIC in the assay with S. aureus UC9213 stood at 1 µg/mL (≈ 2.5 µM); in the assay with S. pneumoniae UC9912, 1 µg/mL (≈ 2.5 µM); in the assay with H. influenzae 30063, 4 µg/mL (≈ 9.99 µM).
Regarding `CC(=O)NC[C@H]1CN(c2ccc([C@H]3[C@@H]4CN(CCF)C[C@@H]43)c(F)c2)C(=O)O1` [Example 46, N-[((5S)-3-{3-fluoro-4-[exo-(1R,5S)-3-(2-fluoroethyl)-3-azabicyclo[3.1.0]hex-6-yl]phenyl}-2-oxo-1,3-oxazolidin-5-yl)methyl]acetamide], the results for the MIC with S. aureus UC9213, against S. pneumoniae UC9912 and in the assay with H. influenzae 30063 were 8 µg/mL (≈ 21.1 µM), 2 µg/mL (≈ 5.27 µM) and 16 µg/mL (≈ 42.2 µM), respectively.
As for `CC(F)(F)C(=O)NC[C@H]1CN(c2ccc([C@H]3[C@@H]4CS(=O)(=O)C[C@@H]43)c(F)c2)C(=O)O1` [Example 55, 2,2-difluoro-N-[((5S)-3-{3-fluoro-4-[exo-(1R,5S)-3,3-dioxido-3-thiabicyclo[3.1.0]hex-6-yl]phenyl}-2-oxo-1,3-oxazolidin-5-yl)methyl]propanamide], the values for the MIC in the assay on S. aureus UC9213, with S. pneumoniae UC9912 and in the assay with H. influenzae 30063 were 8 µg/mL (≈ 18.5 µM), 2 µg/mL (≈ 4.63 µM) and 16 µg/mL (≈ 37 µM), respectively.
Take `CC(=O)NC[C@H]1CN(c2ccc([C@H]3[C@@H]4CN(C(=O)CO)C[C@@H]43)cc2)C(=O)O1` [Example 17, N-[((5S)-3-{4-[exo-(1R,5S)-3-glycoloyl-3-azabicyclo[3.1.0]hex-6-yl]phenyl}-2-oxo-1,3-oxazolidin-5-yl)methyl]acetamide]: the MIC in the assay on S. aureus UC9213 came out at 4 µg/mL (≈ 10.7 µM); against S. pneumoniae UC9912, 2 µg/mL (≈ 5.36 µM); in the assay with H. influenzae 30063 it was 8 µg/mL (≈ 21.4 µM).
Turning to `CC(=O)NC[C@H]1CN(c2ccc([C@H]3[C@@H]4CN(C(=O)[C@@H](O)C(F)(F)F)C[C@@H]43)c(F)c2)C(=O)O1` [Example 33, N-[((5S)-3-{3-fluoro-4-[exo-(1R,5S)-3-(3,3,3-trifluoro-2-(S)-hydroxypropanoyl)-3-azabicyclo[3.1.0]hex-6-yl]phenyl}-2-oxo-1,3-oxazolidin-5-yl)methyl]acetamide], the MIC against S. aureus UC9213 was determined as 2 µg/mL (≈ 4.35 µM); in the assay with S. pneumoniae UC9912, 2 µg/mL (≈ 4.35 µM); with H. influenzae 30063 it was 16 µg/mL (≈ 34.8 µM).
In the case of `CC(=O)NC[C@H]1CN(c2ccc([C@H]3[C@@H]4CN(CCO)C[C@@H]43)c(F)c2)C(=O)O1` [Example 47, N-[((5S)-3-{3-fluoro-4-[exo-(1R,5S)-3-(2-hydroxyethyl)-3-azabicyclo[3.1.0]hex-6-yl]phenyl}-2-oxo-1,3-oxazolidin-5-yl)methyl]acetamide], the MIC came out at 4 µg/mL (≈ 10.6 µM) against S. aureus UC9213, 1 µg/mL (≈ 2.65 µM) against S. pneumoniae UC9912 and 8 µg/mL (≈ 21.2 µM) in the assay on H. influenzae 30063.
With `CC(=O)NC[C@H]1CN(c2ccc([C@H]3[C@@H]4CN(c5ncccn5)C[C@@H]43)c(F)c2)C(=O)O1` [Example 43, N-[((5S)-3-{3-fluoro-4-[exo-(1R,5S)-3-(pyrimidin-2-yl)-3-azabicyclo[3.1.0]hex-6-yl]phenyl}-2-oxo-1,3-oxazolidin-5-yl)methyl]acetamide], the MIC against S. aureus UC9213 stood at 4 µg/mL (≈ 9.72 µM); in the assay on S. pneumoniae UC9912, 1 µg/mL (≈ 2.43 µM); in the assay with H. influenzae 30063 it was 32 µg/mL (≈ 77.8 µM).
Consider `CC(=O)NC[C@H]1CN(c2ccc([C@H]3[C@@H]4CN(C(N)=O)C[C@@H]43)c(F)c2)C(=O)O1` [Example 10, exo-(1R,5S)-6-(4-{(5S)-5-[(acetylamino)methyl]-2-oxo-1,3-oxazolidin-3-yl}-2-fluorophenyl)-3-azabicyclo[3.1.0]hexane-3-carboxamide], for which the MIC against S. aureus UC9213 worked out at 2 µg/mL (≈ 5.31 µM); against S. pneumoniae UC9912, 0.5 µg/mL (≈ 1.33 µM); in the assay with H. influenzae 30063, 4 µg/mL (≈ 10.6 µM).
For the compound `CN/C(=C\[N+](=O)[O-])N1C[C@@H]2[C@H](C1)[C@H]2c1ccc(N2C[C@H](CNC(C)=O)OC2=O)cc1F` [Example 75, N-[((5S)-3-{3-fluoro-4-[exo-(1R,5S)-3-((E)-1-{methylamino}-2-nitrovinyl)-3-azabicyclo[3.1.0]hex-6-yl]phenyl}-2-oxo-1,3-oxazolidin-5-yl)methyl]acetamide], the MIC with S. aureus UC9213 amounted to 2 µg/mL (≈ 4.61 µM); in the assay on S. pneumoniae UC9912, 2 µg/mL (≈ 4.61 µM); in the assay with H. influenzae 30063, 4 µg/mL (≈ 9.23 µM).
For `CCC(=O)NC[C@H]1CN(c2ccc([C@H]3[C@@H]4CN(C(=O)[C@@H](O)CO)C[C@@H]43)c(F)c2)C(=O)O1` [Example 28, N-[((5S)-3-{3-fluoro-4-[exo-(1R,5S)-3-((2S)-2,3-dihydroxypropanoyl)-3-azabicyclo[3.1.0]hex-6-yl]phenyl}-2-oxo-1,3-oxazolidin-5-yl)methyl]propanamide], the MIC against S. aureus UC9213 turned out to be 4 µg/mL (≈ 9.19 µM); against S. pneumoniae UC9912, 4 µg/mL (≈ 9.19 µM); with H. influenzae 30063, 8 µg/mL (≈ 18.4 µM).
Take `O=C(NC[C@H]1CN(c2ccc([C@H]3[C@@H]4C[S+]([O-])C[C@@H]43)c(F)c2)C(=O)O1)C1CCC1` (stereo partly drawn) [Example 56, N-[((5S)-3-{3-fluoro-4-[exo-(1R,5S)-3-oxido-3-thiabicyclo[3.1.0]hex-6-yl]phenyl}-2-oxo-1,3-oxazolidin-5-yl)methyl]cyclobutanecarboxamide]: the MIC against S. aureus UC9213 worked out at 4 µg/mL (≈ 9.84 µM); against S. pneumoniae UC9912, 2 µg/mL (≈ 4.92 µM); with H. influenzae 30063 it was 16 µg/mL (≈ 39.4 µM).
Take `NC(=O)N1C[C@@H]2[C@H](C1)[C@H]2c1c(F)cc(N2C[C@H](Cn3ccnn3)OC2=O)cc1F` [Example 65, exo-(1R,5S)-6-{2,6-difluoro-4-[(5R)-2-oxo-5-(1H-1,2,3-triazol-1-ylmethyl)-1,3-oxazolidin-3-yl]phenyl}-3-azabicyclo[3.1.0]hexane-3-carboxamide]: the MIC turned out to be 2 µg/mL (≈ 4.95 µM) with S. aureus UC9213, 2 µg/mL (≈ 4.95 µM) in the assay with S. pneumoniae UC9912 and 16 µg/mL (≈ 39.6 µM) in the assay on H. influenzae 30063.
Consider `COC(=O)N1C[C@@H]2C(c3ccc(N4C[C@H](CNC(C)=O)OC4=O)cc3F)[C@@H]2C1` (stereo partly drawn) [Example 7, methyl exo-(1R,5S)-6-(4-{(5S)-5-[(acetylamino)methyl]-2-oxo-1,3-oxazolidin-3-yl}-2-fluorophenyl)-3-azabicyclo[3.1.0]hexane-3-carboxylate], for which the “S. aureus UC9213 MIC” value with S. aureus UC9213 (Mueller Hinton agar) was 2 µg/mL. Moreover, the “S. pneumoniae UC9912 MIC” value in the assay with S. pneumoniae UC9912 (Mueller Hinton agar) came to 0.5 µg/mL.
